PMC10815823 (Genes, 2024)
Where two headings read alike, the source gives them in different places.

Key:
[1] = single-oral-dose pharmacokinetic study, plasma AVA and metabolite concentrations in pediatric hypercholesterolemia stratified by SLCO1B1 c.521T>C genotype; type: in vivo, human; conditions: for AUC(0-t) / Cmax / Tmax: human, plasma, 10 mg; for Tmax: median (range)
Experimental: A screening physical examination (including sexual maturity rating via Tanner Staging) was performed prior to ingesting AVA. […] Samples were immediately centrifuged at 4 °C for 10 min at 600 g. Plasma was removed and stored at -80 °C until the analysis. […] All analytical reference compounds were purchased from Toronto Research Chemicals at their highest purity. Plasma proteins were precipitated with acetonitrile and centrifuged, and the filtrates were transferred to a new set of clean, labeled microcentrifuge tubes. An aliquot of the extracts was then transferred to a 96-well plate and analyzed by ultra-performance liquid chromatography tandem mass spectrometry (UPLC-MS/MS) with positive-ion electrospray ionization using multiple-reaction monitoring (MRM). […] Gradient elution was optimized with an acetonitrile-water-MeOH gradient: mobile phase A: water: MeOH: acetic acid (v/v/v), 90:10:0.1; mobile phase B: acetonitrile: methanol: acetic acid (v/v/v), 60:40:0.1. […] All the data acquisition and analysis were carried out by Masslynx 4.2 software. […] The individual peak plasma concentration (Cmax) and time to maximal concentration (Tmax) were obtained by direct examination of the plasma AVA concentration versus hour profile. The area under the plasma concentration versus time curve during the sampling period (AUC0-n) was calculated using the mixed log-linear method, where n refers to the final sampling time with quantifiable plasma AVA or AVA metabolite concentrations. […] Pharmacokinetic parameters were examined in JMP® version 14 (SAS, Cary, NC, USA). Pharmacokinetic parameters reflective of plasma AVA concentrations (Cmax, AUC0-n) and the SLCO1B1 genotype ([…] vs. T/C and C/C) were dependent variables and independent variables, respectively. The Kruskal-Wallis test was leveraged to compare the pharmacokinetic parameters related to genotype groups and demographics. Linear regression to examine the association between the AVA AUCn and […] genotype groups, adjusting for BMI z-score, sex and Tanner score, was performed. […] A single Tanner score was computed by averaging each participant's Tanner breast/testicular and Tanner public hair stage scores. AVA AUC0-24 was first modeled as a function of BMI z-score, sex and Tanner score to estimate the proportion of variability that could be accounted for by these participant characteristics. Then, the count of […] alleles was added to the model to estimate the additional variability accounted for. […] Therefore, the Cmax and AUC were normalized to a dose for each individual participant by dividing the exposure parameter value by the actual mg/kg dose received, then multiplying by the mean mg/kg dose for the entire cohort (e.g., participant AUC (ng·hr/mL)/participant dose (mg/kg) × cohort mean dose (mg/kg)).

[2] = pediatric cohorts; cited from earlier work
[3] = female, oral, Table S3, Gender: Female, mean (± SD), read-out: AUC0-24
[4] = oral, Table S1, entire cohort, median (IQR)
[5] = oral, Table S1, entire cohort, median (IQR), read-out: AUC 0-24
[6] = oral, Table S3, Ethnicity: African-American, mean (± SD), read-out: AUC0-24
[7] = oral, Table S3, Ethnicity: White, Hispanic, mean (± SD), read-out: AUC0-24
[8] = oral, Table S3, Ethnicity: White, non-Hispanic, mean (± SD), read-out: AUC0-24
[9] = oral, Table S3, Tanner Breast/Testicular Stage 2, mean (± SD), read-out: AUC0-24
[10] = oral, Table S3, Tanner Breast/Testicular Stage 3, read-out: AUC0-24
[11] = oral, Table S3, Tanner Breast/Testicular Stage 4, mean (± SD), read-out: AUC0-24
[12] = oral, Table S3, Tanner Breast/Testicular Stage 5, mean (± SD), read-out: AUC0-24
[13] = oral, Table S3, Tanner Pubic Stage 1, read-out: AUC0-24
[14] = oral, Table S3, Tanner Pubic Stage 2, mean (± SD), read-out: AUC0-24
[15] = oral, Table S3, Tanner Pubic Stage 3, read-out: AUC0-24
[16] = oral, Table S3, Tanner Pubic Stage 4, mean (± SD), read-out: AUC0-24
[17] = oral, Table S3, Tanner Pubic Stage 5, mean (± SD), read-out: AUC0-24
[18] = po, SLCO1B1 c.521C/C (n = 2), single oral 10 mg dose, mean (±SD)
[19] = po, SLCO1B1 c.521C/C (n = 2), single oral 10 mg dose
[20] = po, SLCO1B1 c.521C/C (n = 2), single oral 10 mg dose, mean (±SD), read-out: AUC0–24
[21] = po, SLCO1B1 c.521T/C (n = 13), single oral 10 mg dose, mean (±SD)
[22] = po, SLCO1B1 c.521T/C (n = 13), single oral 10 mg dose
[23] = po, SLCO1B1 c.521T/C (n = 13), single oral 10 mg dose, mean (±SD), read-out: AUC0–24
[24] = po, SLCO1B1 c.521T/T (n = 13), single oral 10 mg dose, mean (±SD)
[25] = po, SLCO1B1 c.521T/T (n = 13), single oral 10 mg dose
[26] = po, SLCO1B1 c.521T/T (n = 13), single oral 10 mg dose, mean (±SD), read-out: AUC0–24
[27] = po, entire cohort (n = 28), median (IQR), single oral 10 mg dose
[28] = po, entire cohort (n = 28), median (IQR), single oral 10 mg dose, read-out: AUC0–24
[29] = male, oral, Table S3, Gender: Male, mean (± SD), read-out: AUC0-24

Row | Structure (SMILES) | AUC(0-t) [1, 3] [ng·h/mL] | Cmax [1, 4] [ng/mL] | AUC(0-t) [1, 5] [ng·h/mL] | AUC(0-t) [1, 6] [ng·h/mL] | AUC(0-t) [1, 7] [ng·h/mL] | AUC(0-t) [1, 8] [ng·h/mL] | AUC(0-t) [1, 9] [ng·h/mL] | AUC(0-t) [1, 10] [ng·h/mL] | AUC(0-t) [1, 11] [ng·h/mL] | AUC(0-t) [1, 12] [ng·h/mL] | AUC(0-t) [1, 13] [ng·h/mL] | AUC(0-t) [1, 14] [ng·h/mL] | AUC(0-t) [1, 15] [ng·h/mL] | AUC(0-t) [1, 16] [ng·h/mL] | AUC(0-t) [1, 17] [ng·h/mL] | Cmax [1, 18] [ng/mL] | Tmax [1, 19] [h] | AUC(0-t) [1, 20] [ng·h/mL] | Cmax [1, 21] [ng/mL] | Tmax [1, 22] [h] | also measured
1 | CC(C)c1c(C(=O)Nc2ccccc2)c(-c2ccccc2)c(-c2ccc(F)cc2)n1CC[C@@H](O)C[C@@H](O)CC(=O)O [Atorvastatin, reference compound] | – | – | – | – | – | – | – | – | – | – | – | – | – | – | – | – | – | – | – | – | participants with secondary peaking suggestive of entero-hepatic recirculation ([1]; 12 of 28 participants): 43%; adverse events ([1]; single oral 10 mg dose, 28 participants): No adverse events were reported
2 | CC[C@H](C)C(=O)O[C@H]1C[C@H](O)C=C2C=C[C@H](C)[C@H](CC[C@@H](O)C[C@@H](O)CC(=O)O)[C@H]21 [pravastatin] | – | – | – | – | – | – | – | – | – | – | – | – | – | – | – | – | – | – | – | – | within-c.521T>C-genotype variability in plasma statin concentration [2]: 8- to 17 fold
3 | CC(C)c1c(C(=O)Nc2ccccc2O)c(-c2ccccc2)c(-c2ccc(F)cc2)n1CC[C@@H](O)C[C@@H](O)CC(=O)O [2-Hydroxy Atorvastatin, 2-hydroxyatorvastatin] | 7.3 | 0.7 | 6.4 | 6.1 | 7.6 | 6.9 | 6 | 6 | 4.7 | 8.1 | 5.1 | 6.7 | 4.1 | 3.6 | 8 | 1.3 | 5 | 10.8 | 0.8 | 3 | AUC(0-t) [1, 23]: 7.5 ng·h/mL; Cmax [1, 24]: 0.7 ng/mL; Tmax [1, 25]: 2 h; AUC(0-t) [1, 26]: 6.2 ng·h/mL; Cmax [1, 27]: 0.7 ng/mL; AUC(0-t) [1, 28]: 6.4 ng·h/mL; AUC(0-t) [1, 29]: 7 ng·h/mL

Further lines, with some results ahead:

Row | AUC(0-t) [1, 3] [ng·h/mL] | Cmax [1, 4] [ng/mL] | AUC(0-t) [1, 5] [ng·h/mL] | AUC(0-t) [1, 6] [ng·h/mL] | AUC(0-t) [1, 7] [ng·h/mL] | AUC(0-t) [1, 8] [ng·h/mL] | AUC(0-t) [1, 9] [ng·h/mL] | AUC(0-t) [1, 10] [ng·h/mL] | AUC(0-t) [1, 11] [ng·h/mL] | AUC(0-t) [1, 12] [ng·h/mL] | AUC(0-t) [1, 13] [ng·h/mL] | AUC(0-t) [1, 14] [ng·h/mL] | AUC(0-t) [1, 15] [ng·h/mL] | AUC(0-t) [1, 16] [ng·h/mL] | AUC(0-t) [1, 17] [ng·h/mL] | Cmax [1, 18] [ng/mL] | Tmax [1, 19] [h] | AUC(0-t) [1, 20] [ng·h/mL] | Cmax [1, 21] [ng/mL] | Tmax [1, 22] [h] | Structure (SMILES) | also measured
4 | 18 | 1.1 | 14.5 | 16.7 | 17.2 | 16.4 | 31.9 | 23.4 | 13.4 | 12.9 | 39.2 | 32.7 | 12.7 | 8.5 | 13.7 | 1.9 | 7 | 31 | 1.3 | 5 | CC(C)c1c(C(=O)Nc2ccccc2O)c(-c2ccccc2)c(-c2ccc(F)cc2)n1CCC1CC(O)CC(=O)O1 (stereo not shown) [2-Hydroxy Atorvastatin Lactone, 2-hydroxyatorvastatin lactone] | effect of SLCO1B1 c.521T>C genotype on exposure ([1]; Kruskal–Wallis across genotype groups): not affected by genotype; AUC(0-t) [1, 23]: 17.4 ng·h/mL; Cmax [1, 24]: 1 ng/mL; Tmax [1, 25]: 7 h; AUC(0-t) [1, 26]: 14 ng·h/mL; Cmax [1, 27]: 1.1 ng/mL; AUC(0-t) [1, 28]: 14.5 ng·h/mL; AUC(0-t) [1, 29]: 15.7 ng·h/mL
5 | 12.1 | 0.9 | 8.7 | 11.4 | 13.2 | 10 | 23.3 | 17.3 | 7.9 | 8.5 | 15.4 | 27.7 | 7.8 | 5 | 8.9 | 1.5 | 6 | 27.8 | 1.1 | 4 | CC(C)c1c(C(=O)Nc2ccccc2)c(-c2ccccc2)c(-c2ccc(F)cc2)n1CC[C@@H]1C[C@@H](O)CC(=O)O1 [Atorvastatin Lactone, atorvastatin lactone] | mean Cmax fold higher, c.521C/C relative to c.521T/T ([1]; c.521C/C (n = 2) vs c.521T/T (n = 13)): 2.1 fold; mean Cmax fold higher, c.521T/C relative to c.521T/T ([1]; c.521T/C (n = 13) vs c.521T/T (n = 13)): 1.6 fold; mean AUC0–24 fold higher, c.521T/C relative to c.521T/T ([1]; c.521T/C vs reference genotype): 1.8 fold; AUC(0-t) [1, 23]: 13 ng·h/mL; Cmax [1, 24]: 0.7 ng/mL; Tmax [1, 25]: 2.5 h; AUC(0-t) [1, 26]: 7.2 ng·h/mL; Cmax [1, 27]: 0.9 ng/mL; AUC(0-t) [1, 28]: 8.7 ng·h/mL; AUC(0-t) [1, 29]: 10.7 ng·h/mL
